Results taken from patent US6737425B1, “N,N-substituted cyclic amine derivatives” (Eisai Co., Ltd., priority 1998, dated 2004).
“And” between values parts separate entries of the source, which are not always exact repeats. Identical values can stand only once.

Key:
formalin test = settings: administered into spinal cord, literature reports (1, 2); cited from earlier work
[1] = test system: rat model with local cerebral ischemia; settings: literature reports (13, 14, 15); cited from earlier work
[2] = test system: rat model with occlusion in the middle cerebral artery; test: Effect (II) of reducing infarct volume in a rat model with occlusion in the middle cerebral artery (permanent occlusion); format: in vivo
Protocol: Effect (II) of Reducing Infarct volume in a Rat Model with Occlusion in the Middle Cerebral Artery
The typical example of the compound of the present invention (the compound in Example 1) was compared with compounds disclosed in JP 8-508037-A (WO 94/25469, U.S. Pat. No. 5,750,525), which have affinity for AMPA receptors and is effective against cellular necrosis after ischemia in anoxia and hypocalcemia.
The compound of the present invention was dissolved in physiological saline to be adjusted to a dosage of 10 or 20 mg/kg/h just before use.
The control compound was dissolved in physiological saline to be adjusted to a dosage of 3 mg/kg/h just before use.
Occlusion in the middle cerebral artery was conducted according to the method described above. However, the middle cerebral artery was permanently occluded without removing the nylon embolus.
Two hours after the middle cerebral artery was occluded, a syringe containing the medium or the sample (10 or 20 mg/kg/h) was attached to a catheter for intravenous administration, and half (0.31 ml) of the dosage to be infused for 1 hour was intravenously administered for 1 minute. Thereafter, the medium or the sample was administered continuously for 6 hours at a rate of 0.616 ml/h by the use of a syringe pump for infusion. During administration and for 2 hours after administration was finished, the temperature of the rectum was maintained in the range of 37.0 to 38.5° C. in a system for controlling body temperature. After the body temperature control was finished, the animal was returned to a cage and maintained for 1 day in a breeding room.
Two hours after the middle cerebral artery was occluded, a syringe containing the medium or the sample (3 mg/kg/h) was attached to a catheter for intravenous administration, and the medium or the sample was administered continuously for 6 hours at a rate of 0.616 ml/h by means of the syringe pump for infusion. During administration and for 2 hours after administration was finished, the temperature of the rectum was maintained in the range of 37.0 to 38.5° C. in the system for controlling body temperature. After the body temperature control was finished, the animal was returned to a cage and maintained for 1 day in a breeding room.
The middle cerebral artery was permanently occluded by the nylon embolus, and the infarct volume was measured 24 hours after the occlusion was conducted.

Row | Compound | antalgic action (formalin test) | protective action on nerve cells [1] | infarct volume compared with the control group ([2]; 3 mg/kg/h i.v.) | Infarct volume in the cerebral cortex, Mean ([2]; 3 mg/kg/h i.v. (table: 3 mg/kg), from two hours after occlusion, 6 hours, 24 hours after occlusion)
1 | CSCC[C@@H]1NC(=O)[C@H](CC(C)C)NC(=O)[C@H](CCCNC(=N)N)NC(=O)[C@H](CO)NC(=O)[C@@H]2CSSC[C@@H]3NC(=O)[C@H](CO)NC(=O)CNC(=O)[C@H]([C@@H](C)O)NC(=O)[C@H](CSSC[C@H](N)C(=O)N[C@@H](CCCCN)C(=O)NCC(=O)N[C@@H](CCCCN)C(=O)NCC(=O)N[C@@H](C)C(=O)N[C@@H](CCCCN)C(=O)N2)NC(=O)[C@H](CSSC[C@@H](C(N)=O)NC(=O)[C@H](CCCCN)NC(=O)CNC(=O)[C@H](CO)NC(=O)[C@H](CCCNC(=N)N)NC3=O)NC(=O)[C@H](CC(=O)O)NC(=O)[C@H](Cc2ccc(O)cc2)NC1=O [SNX-111] | has an antalgic action | serves for protection against the liberation of glutamic acid from the cerebral cortex and against the subsequent disturbance of nerve cells |  | 
2 | O=c1[nH]c2cc(C(F)(F)F)c(N3CCOCC3)cc2n(CP(=O)(O)O)c1=O [control compound, {[3,4-Dihydro-7-(4-morpholinyl)-2,3-dioxo-6-(trifluoromethyl)-1-(2H)-quinoxalinyl]methyl}phosphonic acid, reference compound] |  |  | no difference from the control group | 284.9±10.9 mm^3 and 284.9 mm^3
3 | ω-agatoxin IVA |  | has a protective action on nerve cells |  | 
